Key:
[1] = molecular target: CDK2/Cyclin E1 (Homo sapiens, UniProt P24941); assay: CDK2/Cyclin E1 Biochemical Assay (TR-FRET), 1 mM ATP; settings: 0.15 μM Rb (Ser780)-biotin substrate, pH7.0, 60 min preincubation, 90 min reaction, room temperature
Method: (§1) CDK2/Cyclin E1 and CDK1/Cyclin B1 Biochemical Assays
(§2) Compounds disclosed herein were tested for inhibition of CDK2/Cyclin E1 or CDK1/Cyclin B1 kinase in an assay based on the time-resolved fluorescence-resonance energy transfer (TR-FRET) methodology. The assay was carried out in 384-well low volume black plates in a reaction mixture containing CDK2/Cyclin E1 or CDK1/Cyclin B1, 1 mM ATP for CDK2/Cyclin E1 and CDK1/Cyclin B1, 0.15 μM Rb (Ser780)-biotin substrate and 0-10 μM compound in buffer containing 50 mM HEPES pH7.0, 0.02% NaN3, 0.01% BSA, 0.1 mM Orthovanadate, 50 mM MgCl2, 1 mM DTT and 0.005% Tween-20. The kinase was incubated with compound for 60 minutes at room temperature and the reaction was initiated by the addition of ATP and Rb (Ser780)-biotin substrate. After reaction at room temperature for 90 minutes, an equal volume of stop/detection solution was added according to the manufacture's instruction (Cisbio Bioassays). The stop/detection solution contained Streptavidin-XL665 and Anti-pRb (Ser780) mAb-Eu Cryptate in Detection buffer (Cisbio Bioassays). Plates were incubated at room temperature for 60 minutes, and the TR-FRET signals (ex337 nm, em665 nm/620 nm) were recorded on a PHERAstar FSX plate reader (BMG Labtech). The inhibition percentage of CDK2/Cyclin E1 or CDK1/Cyclin B1 kinase activity in presence of increasing concentrations of compounds was calculated based on the ratio of fluorescence at 665 nm to that at 620 nm. The IC50 for each compound was derived from fitting the data to the four-parameter logistic equation by Dotmatics.

[2] = molecular target: CDK1/Cyclin B1 (Homo sapiens, UniProt P06493); assay: CDK1/Cyclin B1 Biochemical Assay (TR-FRET), 1 mM ATP; settings: 0.15 μM Rb (Ser780)-biotin substrate, pH7.0, 60 min preincubation, 90 min reaction, room temperature
Method: as §1, §2

CDK1/Cyclin B1, sequence (P06493 whole entry): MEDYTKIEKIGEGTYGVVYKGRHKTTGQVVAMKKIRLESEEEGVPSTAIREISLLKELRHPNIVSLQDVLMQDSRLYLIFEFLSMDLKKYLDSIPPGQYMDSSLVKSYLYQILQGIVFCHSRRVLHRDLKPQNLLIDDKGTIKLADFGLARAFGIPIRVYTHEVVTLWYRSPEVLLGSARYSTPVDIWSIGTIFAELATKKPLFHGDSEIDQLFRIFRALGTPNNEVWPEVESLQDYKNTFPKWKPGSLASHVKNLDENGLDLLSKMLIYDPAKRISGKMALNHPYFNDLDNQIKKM
CDK1/Cyclin B1, sequence (P14635 whole entry partner): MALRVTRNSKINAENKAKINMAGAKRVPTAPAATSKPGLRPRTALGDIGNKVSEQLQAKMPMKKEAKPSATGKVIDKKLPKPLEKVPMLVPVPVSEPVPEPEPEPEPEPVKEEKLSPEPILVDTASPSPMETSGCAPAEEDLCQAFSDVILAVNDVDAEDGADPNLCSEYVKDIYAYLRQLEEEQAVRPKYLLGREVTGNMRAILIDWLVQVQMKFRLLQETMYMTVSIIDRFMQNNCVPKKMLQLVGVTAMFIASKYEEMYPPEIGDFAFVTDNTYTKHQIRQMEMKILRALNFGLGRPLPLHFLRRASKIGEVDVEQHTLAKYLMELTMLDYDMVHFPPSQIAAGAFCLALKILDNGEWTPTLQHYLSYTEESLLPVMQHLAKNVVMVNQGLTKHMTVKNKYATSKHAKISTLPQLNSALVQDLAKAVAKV

IC50 [1]	IC50 [2]	SMILES
0.0031 µM	0.593 µM	CCCNC(=O)O[C@H]1CC[C@@H](c2cc(Nc3ccc4c(c3F)CCS(=O)(=O)N4)n[nH]2)C1 (relative stereo) [Example 460, cis-3-(3-((5-fluoro-2,2-dioxido-3,4-dihydro-1H-benzo[c][1,2]thiazin-6-yl)amino)-1H-pyrazol-5-yl)cyclopentyl propylcarbamate]
0.012 µM	3.5 µM	CC(C)NC(=O)O[C@H]1CC[C@@H](c2cc(Nc3ccc4c(c3F)N(C)S(=O)(=O)N4C)n[nH]2)C1 (relative stereo) [Example 458, cis-3-(3-((4-fluoro-1,3-dimethyl-2,2-dioxido-1,3-dihydrobenzo[c][1,2,5]thiadiazol-5-yl)amino)-1H-pyrazol-5-yl)cyclopentyl isopropylcarbamate]
0.055 µM	2.99 µM	O=C(N[C@@H]1C[C@H]1O)O[C@H]1CC[C@@H](c2cc(Nc3ccc4c(c3F)CNS4(=O)=O)n[nH]2)C1 (relative stereo) [Example 442, cis-3-(3-((4-fluoro-1,1-dioxido-2,3-dihydrobenzo[d]isothiazol-5-yl)amino)-1H-pyrazol-5-yl)cyclopentyl((1R,2R)-2-hydroxycyclopropyl)carbamate]
0.0099 µM	7.05 µM	CC1(NC(=O)O[C@H]2CC[C@@H](c3cc(Nc4cc5c(cc4F)S(=O)(=O)NC5)n[nH]3)C2)COC1 (relative stereo) [Example 451, cis-3-(3-((6-fluoro-1,1-dioxido-2,3-dihydrobenzo[d]isothiazol-5-yl)amino)-1H-pyrazol-5-yl)cyclopentyl(3-methyloxetan-3-yl)carbamate]
0.0009 µM	0.446 µM	CN1c2ccc(Nc3cc([C@@H]4CC[C@H](OC(=O)NC(C)(C)C)C4)[nH]n3)c(F)c2CS1(=O)=O (relative stereo) [Example 453, cis-3-(3-((4-fluoro-1-methyl-2,2-dioxido-1,3-dihydrobenzo[c]isothiazol-5-yl)amino)-1H-pyrazol-5-yl)cyclopentyl tert-butylcarbamate]
0.0005 µM	0.55 µM	O=C(NC12CC(O)(C1)C2)O[C@H]1CC[C@@H](c2cc(Nc3cc4c(cc3F)S(=O)(=O)NC4)n[nH]2)C1 (relative stereo) [Example 456, cis-3-(3-((6-fluoro-1,1-dioxido-2,3-dihydrobenzo[d]isothiazol-5-yl)amino)-1H-pyrazol-5-yl)cyclopentyl(3-hydroxybicyclo[1.1.1]pentan-1-yl)carbamate]
0.0007 µM	0.349 µM	CC1(NC(=O)O[C@H]2CC[C@@H](c3cc(Nc4ccc5c(c4F)CCS(=O)(=O)N5)n[nH]3)C2)CC1 (relative stereo) [Example 462, cis-3-(3-((5-fluoro-2,2-dioxido-3,4-dihydro-1H-benzo[c][1,2]thiazin-6-yl)amino)-1H-pyrazol-5-yl)cyclopentyl(1-methylcyclopropyl)carbamate]
0.0004 µM	0.14 µM	CC(C)(C)NC(=O)O[C@H]1CC[C@@H](c2cc(Nc3ccc4c(c3F)CCS(=O)(=O)N4)n[nH]2)C1 [Example 463, (1S,3R)-3-(3-((5-fluoro-2,2-dioxido-3,4-dihydro-1H-benzo[c][1,2]thiazin-6-yl)amino)-1H-pyrazol-5-yl)cyclopentyl tert-butylcarbamate]
0.0018 µM	1.11 µM	O=C(NC12CCC(O)(CC1)CC2)O[C@H]1CC[C@@H](c2cc(Nc3cc4c(cc3F)S(=O)(=O)NC4)n[nH]2)C1 (relative stereo) [Example 457, cis-3-(3-((6-fluoro-1,1-dioxido-2,3-dihydrobenzo[d]isothiazol-5-yl)amino)-1H-pyrazol-5-yl)cyclopentyl(4-hydroxybicyclo[2.2.2]octan-1-yl)carbamate]
0.189 µM	> 10 µM	CN(C(=O)O[C@H]1CC[C@@H](c2cc(Nc3cc4c(cc3F)S(=O)(=O)NC4)n[nH]2)C1)C1CCOC1 (relative stereo) [Example 440, cis-3-(3-((6-fluoro-1,1-dioxido-2,3-dihydrobenzo[d]isothiazol-5-yl)amino)-1H-pyrazol-5-yl)cyclopentyl methyl(tetrahydrofuran-3-yl)carbamate]

More lines, now with the values behind:

SMILES	IC50 [1]	IC50 [2]
CC(C)(CO)NC(=O)O[C@H]1CC[C@@H](c2cc(Nc3ccc4c(c3F)CN(C3CC3)S4(=O)=O)n[nH]2)C1 (single isomer, unassigned) [Example 359b, cis-3-(3-((2-cyclopropyl-4-fluoro-1,1-dioxido-2,3-dihydrobenzo[d]isothiazol-5-yl)amino)-1H-pyrazol-5-yl)cyclopentyl(1-hydroxy-2-methylpropan-2-yl)carbamate]	0.0071 µM	2.89 µM
CN1c2ccc(Nc3cc([C@@H]4CC[C@H](OC(=O)NCC(C)(C)O)C4)[nH]n3)c(F)c2CS1(=O)=O (single isomer, unassigned) [Example 330b, cis-3-(3-((4-fluoro-1-methyl-2,2-dioxido-1,3-dihydrobenzo[c]isothiazol-5-yl)amino)-1H-pyrazol-5-yl)cyclopentyl(2-hydroxy-2-methylpropyl)carbamate]	0.024 µM	4.09 µM
O=C(NC1CCOC1)O[C@H]1CC[C@@H](c2cc(Nc3ccc4c(c3F)CS(=O)(=O)N4C3CC3)n[nH]2)C1 (relative stereo) [Example 429, cis-3-(3-((1-cyclopropyl-4-fluoro-2,2-dioxido-1,3-dihydrobenzo[c]isothiazol-5-yl)amino)-1H-pyrazol-5-yl)cyclopentyl(tetrahydrofuran-3-yl)carbamate]	0.133 µM	> 10 µM
O=C(NCC1CC1)O[C@H]1CC[C@@H](c2cc(Nc3cc4c(cc3F)S(=O)(=O)NC4)n[nH]2)C1 (relative stereo) [Example 420, cis-3-(3-((6-fluoro-1,1-dioxido-2,3-dihydrobenzo[d]isothiazol-5-yl)amino)-1H-pyrazol-5-yl)cyclopentyl(cyclopropylmethyl)carbamate]	0.024 µM	5.51 µM
CC(C)NC(=O)O[C@H]1CC[C@@H](c2cc(Nc3ccc4c(c3F)CS(=O)(=O)N4CC(C)(C)O)n[nH]2)C1 (single isomer, unassigned) [Example 254a, cis-3-(3-((4-fluoro-1-(2-hydroxy-2-methylpropyl)-2,2-dioxido-1,3-dihydrobenzo[c]isothiazol-5-yl)amino)-1H-pyrazol-5-yl)cyclopentyl isopropylcarbamate]	0.012 µM	3.74 µM
CCCNC(=O)O[C@@H]1CC[C@H](c2cc(Nc3ccc4c(c3F)CS(=O)(=O)N4CC(C)(C)O)n[nH]2)C1 [Example 433a]	0.018 µM	3.1 µM
CC1(NC(=O)O[C@H]2CC[C@@H](c3cc(Nc4ccc5c(c4F)CS(=O)(=O)N5)n[nH]3)C2)CCCC1 (relative stereo) [Example 439, cis-3-(3-((4-fluoro-2,2-dioxido-1,3-dihydrobenzo[c]isothiazol-5-yl)amino)-1H-pyrazol-5-yl)cyclopentyl(1-methylcyclopentyl)carbamate]	0.0027 µM	0.215 µM
CCNC(=O)O[C@H]1CC[C@@H](c2cc(Nc3cc4c(cc3F)S(=O)(=O)NC4)n[nH]2)C1 (relative stereo) [Example 421, cis-3-(3-((6-fluoro-1,1-dioxido-2,3-dihydrobenzo[d]isothiazol-5-yl)amino)-1H-pyrazol-5-yl)cyclopentyl ethylcarbamate]	0.135 µM	> 10 µM
CC(C)(O)CN1c2ccc(Nc3cc([C@@H]4CC[C@H](OC(=O)NC5(C)CC5)C4)[nH]n3)c(F)c2CS1(=O)=O (relative stereo) [Example 435, cis-3-(3-((4-fluoro-1-(2-hydroxy-2-methylpropyl)-2,2-dioxido-1,3-dihydrobenzo[c]isothiazol-5-yl)amino)-1H-pyrazol-5-yl)cyclopentyl(1-methylcyclopropyl)carbamate]	0.0013 µM	0.423 µM
CN1c2ccc(Nc3cc([C@@H]4CC[C@H](OC(=O)NC5CCOC5)C4)[nH]n3)cc2CS1(=O)=O (relative stereo) [Example 424, cis-3-(3-((1-methyl-2,2-dioxido-1,3-dihydrobenzo[c]isothiazol-5-yl)amino)-1H-pyrazol-5-yl)cyclopentyl(tetrahydrofuran-3-yl)carbamate]	0.084 µM	> 10 µM
CC(C)(CO)NC(=O)O[C@H]1CC[C@@H](c2cc(Nc3ccc4c(c3F)CS(=O)(=O)N4C3CC3)n[nH]2)C1 (single isomer, unassigned) [Example 363a, cis-3-(3-((1-cyclopropyl-4-fluoro-2,2-dioxido-1,3-dihydrobenzo[c]isothiazol-5-yl)amino)-1H-pyrazol-5-yl)cyclopentyl(1-hydroxy-2-methylpropan-2-yl)carbamate]	0.0022 µM	2.42 µM
